According to BigSolDB 2.1:

| SMILES | solubility (mole fraction) (in n-octanol, 298.15 K) | solubility (mole fraction) (in n-octanol, 303.15 K) | solubility (mole fraction) (in n-octanol, 308.15 K) | solubility (mole fraction) (in n-octanol, 313.15 K) | solubility (mole fraction) (in n-octanol, 318.15 K) | solubility (mole fraction) (in water, 298.15 K) | solubility (mole fraction) (in water, 303.15 K) | solubility (mole fraction) (in water, 308.15 K) | solubility (mole fraction) (in water, 313.15 K) | solubility (mole fraction) (in water, 318.15 K) |
| --- | --- | --- | --- | --- | --- | --- | --- | --- | --- | --- |
| COc1ccc(-c2coc3cc(O)ccc3c2=O)cc1 | 0.00056 | 0.0006 | 0.00065 | 0.00069 | 0.00075 | 7.85e-10 | 3.51e-09 | 6.78e-09 | 1.08e-08 | 1.5e-08 |
| COc1ccc(C2CC(=O)c3c(O)cc(O)cc3O2)cc1O (stereo not given) | 0.00269 | 0.00299 | 0.0033 | 0.00379 | 0.0042 | 5.51e-08 | 1.35e-07 | 2.52e-07 | 4.66e-07 | 7.9e-07 |
| O=C1c2c(O)cc(O)cc2OC(c2ccc(O)c(O)c2)C1O (stereo not given) | 0.0127 | 0.0141 | 0.0157 | 0.0176 | 0.0196 | 2.55e-05 | 3.18e-05 | 4.5e-05 | 6.88e-05 | 8.05e-05 |
| O=c1c(O)c(-c2ccc(O)cc2)oc2cc(O)cc(O)c12 | 0.00857 | 0.00895 | 0.00965 | 0.0103 | 0.0118 | 4.59e-10 | 1.17e-09 | 2.31e-09 | 4.48e-09 | 7.65e-09 |
| O=c1cc(-c2ccc(O)cc2)oc2cc(O)cc(O)c12 | 0.00077 | 0.0008 | 0.00084 | 0.00094 | 0.00102 | 7.47e-09 | 1.73e-08 | 2.96e-08 | 5.87e-08 | 1.03e-07 |
| O=c1cc(-c2ccc(O)c(O)c2)oc2cc(O)cc(O)c12 | 0.0002 | 0.00021 | 0.00023 | 0.00025 | 0.00027 | 4.54e-08 | 6.74e-08 | 1.2e-07 | 1.91e-07 | 3.74e-07 |
| O=C1C[C@@H](c2ccc(O)cc2)Oc2cc(O)cc(O)c21 | 0.00903 | 0.00963 | 0.0103 | 0.0109 | 0.0114 | 1.79e-07 | 2.98e-07 | 4.96e-07 | 7.64e-07 | 1.1e-06 |

The next lines start with the values.

| solubility (mole fraction) (in n-octanol, 298.15 K) | solubility (mole fraction) (in n-octanol, 303.15 K) | solubility (mole fraction) (in n-octanol, 308.15 K) | solubility (mole fraction) (in n-octanol, 313.15 K) | solubility (mole fraction) (in n-octanol, 318.15 K) | solubility (mole fraction) (in water, 298.15 K) | solubility (mole fraction) (in water, 303.15 K) | solubility (mole fraction) (in water, 308.15 K) | solubility (mole fraction) (in water, 313.15 K) | solubility (mole fraction) (in water, 318.15 K) | SMILES |
| --- | --- | --- | --- | --- | --- | --- | --- | --- | --- | --- |
| 0.00208 | 0.00218 | 0.00228 | 0.00234 | 0.00247 | 5.95e-10 | 1.24e-09 | 3.63e-09 | 1e-08 | 1.88e-08 | O=c1cc(-c2ccccc2)oc2cc(O)cc(O)c12 |
| 0.00526 | 0.00608 | 0.00677 | 0.00747 | 0.00823 | 5.29e-09 | 1.02e-08 | 1.61e-08 | 2.34e-08 | 3.78e-08 | O=c1c(O)c(-c2ccc(O)c(O)c2)oc2cc(O)cc(O)c12 |
| 0.00226 | 0.00235 | 0.00251 | 0.00265 | 0.00288 | 6.19e-09 | 2.24e-08 | 3.25e-08 | 4.57e-08 | 9.53e-08 | O=c1c(O)c(-c2ccc(O)cc2O)oc2cc(O)cc(O)c12 |
